# Read-outs that look alike come from different tables or passages of the source.
# Tests used:
# hNSC = test: MMP assay in human neural stem cells (hNSC); assay type: cell-based; settings: Homo sapiens, Neural stem cell, 1 h, read-out: hNSC IC50 (MMP)
# HepG2 cells [1] = settings: cited from earlier work; for IC50: read-out: MMP assays IC50 (µM) qHTS-HepG2
# [2] = tested on: Caenorhabditis elegans strain PE255; test: In vivo C. elegans ATP status assay; settings: for minimal effective concentration: Caenorhabditis elegans, read-out: LEC LUM: lowest effect concentration for luminescence, a measure of nematode ATP content
# [3] = tested on: Caenorhabditis elegans (Bristol N2); test: C. elegans larval development and growth assay
# [4] = tested on: p53 (p53-bla HCT-116 cells); test: p53 β-lactamase reporter gene assay; assay type: cell-based, human; settings: 16 h incubation, mean±SD of three experiments
# rat primary hepatocytes [5] = test: MMP assay in rat primary hepatocytes; settings: Rattus norvegicus, Hepatocyte
# [6] = tested on: Nrf2/ARE (ARE-bla HepG2 cells); test: ARE β-lactamase reporter gene assay; assay type: cell-based, human; settings: 16 h incubation, mean±SD of three experiments
# rat primary hepatocytes [7] = tested on: rat primary hepatocytes
# [8] = tested on: isolated rat liver mitochondria; test: Oxygen consumption, Clark-type oxygen electrode; assay type: biochemical
# HepG2 cells [9] = test: ROS-Glo hydrogen peroxide (ROS) assay; assay type: cell-based, human
# HepG2 cells [10] = test: Intracellular ATP content (cell viability) assay; assay type: cell-based, human; settings: for IC50: Homo sapiens, HepG2, 40 h
# HepG2 cells [11] = test: cells; settings: Homo sapiens; for Emax: HepG2, read-out: MMP assays efficacy (%) HepG2
# [12] = tested on: HeLa cells expressing YFP-Parkin; test: Parkin translocation assay; assay type: cell-based, human
# [13] = 1 h, read-out: Rat hepatocytes IC50 (MMP)
# [14] = read-out: MMP assays IC50 (µM) Rat Hepatocytes
# [15] = HepG2, 1 h, read-out: HepG2 IC50 Galactose (MMP)
# [16] = HepG2, 1 h, read-out: HepG2 IC50 Glucose (MMP)
smiles,measurement,setting,value
O=C(Nc1ccccc1)Nc1ccccc1 [Diphenylurea],IC50,hNSC,12.1 µM
same,MMP assays efficacy (%) qHTS-HepG2,HepG2 cells [1],-111±9%
same,IC50,HepG2 cells [1],1.6 ± 0.74 µM
same,LUM: mean difference in luminescence (ATP content) relative to plate controls,[2]; 0.5 µM,0.08612
same,LUM: mean difference in luminescence (ATP content) relative to plate controls,[2]; 1 µM,0.1632
same,LUM: mean difference in luminescence (ATP content) relative to plate controls,[2]; 5 µM,0.3729
same,LUM: mean difference in luminescence (ATP content) relative to plate controls,[2]; 10 µM,1.1516
same,LUM: mean difference in luminescence (ATP content) relative to plate controls,[2]; 25 µM,1.501
same,LUM: mean difference in luminescence (ATP content) relative to plate controls,[2]; 50 µM,1.222
same,LUM: mean difference in luminescence (ATP content) relative to plate controls,[2]; 75 µM,0.9702
same,LUM: mean difference in luminescence (ATP content) relative to plate controls,[2]; 100 µM,0.9744
same,effect on ATP content (in words),[2]; 0.5–100μM,statistically significant decreases in ATP content
same,minimal effective concentration,[2],10 µM
same,EXT: mean difference in nematode size relative to plate controls,[3]; 0.5 µM,0.0636
same,EXT: mean difference in nematode size relative to plate controls,[3]; 1 µM,0.005834
same,EXT: mean difference in nematode size relative to plate controls,[3]; 5 µM,-0.06608
same,EXT: mean difference in nematode size relative to plate controls,[3]; 10 µM,0.006337
same,EXT: mean difference in nematode size relative to plate controls,[3]; 25 µM,0.05471
same,EXT: mean difference in nematode size relative to plate controls,[3]; 50 µM,0.1792
same,EXT: mean difference in nematode size relative to plate controls,[3]; 75 µM,0.1069
same,EXT: mean difference in nematode size relative to plate controls,[3]; 100 µM,0.0228
same,effect on larval growth (in words),[3]; 0.5–100μM,did not affect growth
same,p53 (HCT-116) EC50,[4],Inactive
same,IC50,rat primary hepatocytes [5]; [13],15.4 µM
same,IC50,rat primary hepatocytes [5]; [14],8.46 ± 2.39 µM
same,ARE (HepG2) EC50,[6],Inactive
same,MMP assays efficacy (%) Rat Hepatocytes,rat primary hepatocytes [7],-72±30%
same,Rat hepatocytes (efficacy) (MMP),rat primary hepatocytes [7],15.4±2.88 ( −117±8.21 ) %
same,Potential Mechanism,[8],"Uncoupler at low concentrations (20 µM), and Uncoupler + inhibitor at high concentrations (100 µM)"
same,"I-ADP, % of control (O2 consumption rate)",[8]; 0.8 µM,97 (36.2) % of control
same,"I-sub, % of control (O2 consumption rate)",[8]; 0.8 µM,105 (11.3) % of control
same,"II-ADP, % of control (O2 consumption rate)",[8]; 0.8 µM,91 (57.2) % of control
same,"II-sub, % of control (O2 consumption rate)",[8]; 0.8 µM,106 (19.6) % of control
same,"I-ADP, % of control (O2 consumption rate)",[8]; 4 µM,93 (34.6) % of control
same,"I-sub, % of control (O2 consumption rate)",[8]; 4 µM,104 (11.2) % of control
same,"II-ADP, % of control (O2 consumption rate)",[8]; 4 µM,83 (52.5) % of control
same,"II-sub, % of control (O2 consumption rate)",[8]; 4 µM,97 (18.0) % of control
same,"I-ADP, % of control (O2 consumption rate)",[8]; 20 µM,96 (35.6) % of control
same,"I-sub, % of control (O2 consumption rate)",[8]; 20 µM,144 (15.5) % of control
same,"II-ADP, % of control (O2 consumption rate)",[8]; 20 µM,91 (57.6) % of control
same,"II-sub, % of control (O2 consumption rate)",[8]; 20 µM,129 (23.9) % of control
same,"I-ADP, % of control (O2 consumption rate)",[8]; 100 µM,38 (19.1) % of control
same,"I-sub, % of control (O2 consumption rate)",[8]; 100 µM,167 (35.8) % of control
same,"II-ADP, % of control (O2 consumption rate)",[8]; 100 µM,25 (15.1) % of control
same,"II-sub, % of control (O2 consumption rate)",[8]; 100 µM,55 (19.1) % of control
same,ROS (HepG2) EC50,HepG2 cells [9],Inactive
same,"ATP (HepG2, galactose) IC50",HepG2 cells [10],Inactive
same,"ATP (HepG2, glucose) IC50",HepG2 cells [10],Inactive
same,IC50,HepG2 cells [11]; [15],10.3 µM
same,IC50,HepG2 cells [11]; [16],7.73 µM
same,IC50,"HepG2 cells [11]; HepG2, read-out: MMP assays IC50 (µM) HepG2",2.51 µM
same,Emax,HepG2 cells [11],131%
same,Parkin recruitment,[12],Inactive
"N#CC(c1ccc(Cl)cc1)c1c(Cl)cc(-n2ncc(=O)[nH]c2=O)cc1Cl (stereo not drawn) [Diclazuril, reference compound]",IC50,hNSC,20.6 µM
same,MMP assays efficacy (%) qHTS-HepG2,HepG2 cells [1],-108±7%
same,IC50,HepG2 cells [1],11.2 ± 2.79 µM
same,"LEC (lowest effect concentration), ATP assay",[2]; 24 h exposure,< 10 µM
same,minimal effective concentration,[2],5 µM
same,"LEC (lowest effect concentration), larval growth assay",[3]; 48 h exposure,< 10 µM
same,minimal effective concentration,"[3]; Caenorhabditis elegans, read-out: LEC EXT: lowest effect concentration for extinction, a measure of nematode size",2.5 µM
same,EC50,[4]; Homo sapiens,27.9 ± 6.48 µM
same,IC50,rat primary hepatocytes [5]; [13],11.5 µM
same,IC50,rat primary hepatocytes [5]; [14],5.7 ± 1.94 µM
same,EC50,"[6]; Homo sapiens, HepG2, read-out: ARE (HepG2) EC50",10.9 µM
same,MMP assays efficacy (%) Rat Hepatocytes,rat primary hepatocytes [7],-114±26%
same,Rat hepatocytes (efficacy) (MMP),rat primary hepatocytes [7],11.5±5.18 ( −72.8±2.37 ) %
same,"I-ADP, % of control (O2 consumption rate)","[8]; 0.16 µM, glutamate/malate driven state 3 respiration, isolated rat liver mitochondria",96 (22.7) % of control
same,"I-sub, % of control (O2 consumption rate)","[8]; 0.16 µM, glutamate/malate driven state 4 respiration, isolated rat liver mitochondria",174 (24.7) % of control
same,"II-ADP, % of control (O2 consumption rate)","[8]; 0.16 µM, succinate-driven state 3 respiration, isolated rat liver mitochondria",99 (32.7) % of control
same,"II-sub, % of control (O2 consumption rate)","[8]; 0.16 µM, succinate-driven state 4 respiration, isolated rat liver mitochondria",168 (35.8) % of control
same,"I-ADP, % of control (O2 consumption rate)","[8]; 0.8 µM, glutamate/malate driven state 3 respiration, isolated rat liver mitochondria",95 (41.4) % of control
same,"I-sub, % of control (O2 consumption rate)","[8]; 0.8 µM, glutamate/malate driven state 4 respiration, isolated rat liver mitochondria",290 (38.0) % of control
same,"II-ADP, % of control (O2 consumption rate)","[8]; 0.8 µM, succinate-driven state 3 respiration, isolated rat liver mitochondria",88 (59.6) % of control
same,"II-sub, % of control (O2 consumption rate)","[8]; 0.8 µM, succinate-driven state 4 respiration, isolated rat liver mitochondria",263 (54.9) % of control
same,"I-ADP, % of control (O2 consumption rate)","[8]; 4 µM, glutamate/malate driven state 3 respiration, isolated rat liver mitochondria",45 (41.9) % of control
same,"I-sub, % of control (O2 consumption rate)","[8]; 4 µM, glutamate/malate driven state 4 respiration, isolated rat liver mitochondria",115 (22.8) % of control
same,"II-ADP, % of control (O2 consumption rate)","[8]; 4 µM, succinate-driven state 3 respiration, isolated rat liver mitochondria",55 (67.2) % of control
same,"II-sub, % of control (O2 consumption rate)","[8]; 4 µM, succinate-driven state 4 respiration, isolated rat liver mitochondria",103 (35.2) % of control
same,"I-ADP, % of control (O2 consumption rate)","[8]; 20 µM, glutamate/malate driven state 3 respiration, isolated rat liver mitochondria",95 (41.4) % of control
same,"I-sub, % of control (O2 consumption rate)","[8]; 20 µM, glutamate/malate driven state 4 respiration, isolated rat liver mitochondria",124 (16.3) % of control
same,"II-ADP, % of control (O2 consumption rate)","[8]; 20 µM, succinate-driven state 3 respiration, isolated rat liver mitochondria",101 (68.5) % of control
same,"II-sub, % of control (O2 consumption rate)","[8]; 20 µM, succinate-driven state 4 respiration, isolated rat liver mitochondria",127 (26.6) % of control
same,"I-ADP, % of control (O2 consumption rate)","[8]; 100 µM, glutamate/malate driven state 3 respiration, isolated rat liver mitochondria",94 (41.1) % of control
same,"I-sub, % of control (O2 consumption rate)","[8]; 100 µM, glutamate/malate driven state 4 respiration, isolated rat liver mitochondria",115 (15.1) % of control
same,"II-ADP, % of control (O2 consumption rate)","[8]; 100 µM, succinate-driven state 3 respiration, isolated rat liver mitochondria",101 (68.3) % of control
same,"II-sub, % of control (O2 consumption rate)","[8]; 100 µM, succinate-driven state 4 respiration, isolated rat liver mitochondria",114 (23.8) % of control
same,ROS (HepG2) EC50,HepG2 cells [9],Inactive
same,IC50,"HepG2 cells [10]; read-out: ATP (HepG2, galactose) IC50",43.4 µM
same,IC50,"HepG2 cells [10]; read-out: ATP (HepG2, glucose) IC50",50.4 µM
same,IC50,HepG2 cells [11]; [15],46.3 µM
same,IC50,HepG2 cells [11]; [16],38.3 µM
same,Emax,HepG2 cells [11],99%
same,Parkin recruitment,[12],Inactive
